24 compounds from US9133148B2, “Carbamate compounds and of making and using same” (Abide Therapeutics, Inc., priority 2012, dated 2015) can be followed below.

By IC50 is commonly meant the concentration at which inhibition is half-maximal.

Type in all cases: biochemical
Assay [1] addresses FAAH (Mus musculus (Mouse), UniProt O08914). Put plainly: In vitro competitive activity-based protein profiling (FP-Rh), mouse FAAH. Particulars: mouse brain membrane proteome. Here is the method:
(§1) In Vitro Competitive Activity-Based Protein Profiling.
(§2) Proteomes (mouse brain membrane fraction or cell lysates) ([…], 1.0 mg/mL total protein concentration) were preincubated with varying concentrations of inhibitors at 37° C. After 30 min, FP-Rh (1.0 μL, 50 μM in DMSO) was added and the mixture was incubated for another 30 min at 37° C. Reactions were quenched with SDS loading buffer (50 μL—4×) and run on SDS-PAGE.

Assay [2] addresses ABHD6 (Mus musculus (Mouse), UniProt Q8R2Y0). Nature of the assay: In vitro competitive activity-based protein profiling (FP-Rh), mouse ABHD6. The note with it: mouse brain membrane proteome. As to the method:
as §1, §2

Assay [3] has as its target MAGL (Mus musculus (Mouse), UniProt O35678). Nature of the assay: In vitro competitive activity-based protein profiling (FP-Rh), mouse MAGL. Particulars: mouse brain membrane proteome, competitive ABPP (Table 7). As to the method: as §1, §2

Chain of FAAH (O08914 whole entry): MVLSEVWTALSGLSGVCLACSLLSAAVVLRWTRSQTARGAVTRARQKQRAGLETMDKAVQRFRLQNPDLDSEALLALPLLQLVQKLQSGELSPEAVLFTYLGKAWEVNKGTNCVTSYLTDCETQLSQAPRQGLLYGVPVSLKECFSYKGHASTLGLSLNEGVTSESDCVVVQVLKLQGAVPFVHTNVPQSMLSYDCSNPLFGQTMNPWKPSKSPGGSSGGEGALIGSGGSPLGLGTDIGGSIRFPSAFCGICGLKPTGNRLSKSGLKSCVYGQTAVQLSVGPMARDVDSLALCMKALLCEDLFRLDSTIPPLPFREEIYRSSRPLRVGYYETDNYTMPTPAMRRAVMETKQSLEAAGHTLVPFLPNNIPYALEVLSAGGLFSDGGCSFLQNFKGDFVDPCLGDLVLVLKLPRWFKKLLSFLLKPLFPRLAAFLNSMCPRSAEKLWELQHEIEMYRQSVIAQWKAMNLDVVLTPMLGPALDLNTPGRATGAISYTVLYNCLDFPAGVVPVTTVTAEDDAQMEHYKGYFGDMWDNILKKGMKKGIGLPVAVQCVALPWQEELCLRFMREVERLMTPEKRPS
Chain of ABHD6 (Q8R2Y0 whole entry): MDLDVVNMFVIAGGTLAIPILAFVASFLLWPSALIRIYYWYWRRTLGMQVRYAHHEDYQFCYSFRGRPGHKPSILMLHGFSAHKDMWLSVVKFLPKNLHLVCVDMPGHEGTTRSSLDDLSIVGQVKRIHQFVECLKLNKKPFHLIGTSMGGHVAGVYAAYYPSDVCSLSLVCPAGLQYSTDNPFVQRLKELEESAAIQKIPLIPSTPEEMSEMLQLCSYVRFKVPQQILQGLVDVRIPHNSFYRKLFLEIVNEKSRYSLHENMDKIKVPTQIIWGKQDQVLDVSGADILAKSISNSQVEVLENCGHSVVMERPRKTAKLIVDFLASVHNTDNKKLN
Chain of MAGL (O35678 whole entry): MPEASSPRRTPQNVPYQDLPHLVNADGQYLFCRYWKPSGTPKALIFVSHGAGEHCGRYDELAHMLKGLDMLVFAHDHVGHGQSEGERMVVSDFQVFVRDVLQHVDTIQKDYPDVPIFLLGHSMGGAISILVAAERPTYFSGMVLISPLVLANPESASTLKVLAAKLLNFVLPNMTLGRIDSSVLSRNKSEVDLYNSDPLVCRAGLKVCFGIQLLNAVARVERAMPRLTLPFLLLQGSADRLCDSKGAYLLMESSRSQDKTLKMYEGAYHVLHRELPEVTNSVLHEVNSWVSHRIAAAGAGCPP

As to `O=C(Oc1ccc([N+](=O)[O-])cc1)N1CCC(C(O)(c2ccc3c(c2)OCO3)c2ccc3c(c2)OCO3)CC1` [A, 4-nitrophenyl 4-(dibenzo[d][1,3]dioxol-5-yl(hydroxy)methyl)piperidine-1-carboxylate, reference compound], the IC50 in assay [1] (competitive ABPP) is 4700 nM; in assay [2] (competitive ABPP) it was 100 to 1000 nM.

The compound `O=C(OC(C(F)(F)F)C(F)(F)F)N1CCN(Cc2ccc(Br)cc2N2CCCC2)CC1` [Example 9x, 1,1,1,3,3,3-hexafluoropropan-2-yl 4-(4-bromo-2-(pyrrolidin-1-yl)benzyl)piperazine-1-carboxylate] yielded a concentration for half-maximal inhibition (IC50) in assay [1] (competitive ABPP (Table 7)) greater than 250 nM.

Compound `Cn1cc(CN2CCN(C(=O)OC(C(F)(F)F)C(F)(F)F)CC2)c(-c2ccccc2)n1` [Example 10e, 1,1,1,3,3,3-hexafluoropropan-2-yl 4-((1-methyl-3-phenyl-1H-pyrazol-4-yl)methyl)piperazine-1-carboxylate] gave an IC50 in assay [1] (competitive ABPP (Table 7)) greater than 10000 nM.

`Cc1nn(-c2ccccc2)cc1CN1CCN(C(=O)OC(C(F)(F)F)C(F)(F)F)CC1` [Example 10c, 1,1,1,3,3,3-hexafluoropropan-2-yl 4-((3-methyl-1-phenyl-1H-pyrazol-4-yl)methyl)piperazine-1-carboxylate] displayed a concentration for half-maximal inhibition (IC50) in assay [1] (competitive ABPP (Table 7)) greater than 6250 nM.

As to `O=C(OC(C(F)(F)F)C(F)(F)F)N1CCN(Cc2cc(-c3ccccc3)on2)CC1` [Example 10b, 1,1,1,3,3,3-hexafluoropropan-2-yl 4-((5-phenylisoxazol-3-yl)methyl)piperazine-1-carboxylate], in assay [3], the IC50 lay within 100 to 1000 nM.

Regarding `O=C(OC(C(F)(F)F)C(F)(F)F)N1CCN(Cc2ccc(Cl)cc2N2CCOCC2)CC1` [Example 9t, 1,1,1,3,3,3-hexafluoropropan-2-yl 4-(4-chloro-2-morpholinobenzyl)piperazine-1-carboxylate], the IC50 in assay [1] (competitive ABPP (Table 7)) is greater than 6250 nM.

As for `CN(Cc1cccc(-c2ccncc2)c1)C(=O)OC(C(F)(F)F)C(F)(F)F` [Example 3f, 1,1,1,3,3,3-hexafluoropropan-2-yl methyl(3-(pyridin-4-yl)benzyl)-carbamate], the values for the IC50 in assay [1] (competitive ABPP) and in assay [2] (competitive ABPP) were greater than 10000 nM and 100 to 1000 nM, respectively.

In assay [1] (competitive ABPP (Table 7)), `O=C(OC(C(F)(F)F)C(F)(F)F)N1CCN(Cc2ccc(Cl)cc2N2CCCC2)CC1` [Example 9z, 1,1,1,3,3,3-hexafluoropropan-2-yl 4-(4-chloro-2-(pyrrolidin-1-yl)benzyl)piperazine-1-carboxylate] registered an IC50 greater than 10000 nM.

As for `Cc1cc(Cl)ccc1C(c1ccc(Cl)cc1C)N1CCN(C(=O)OC(C(F)(F)F)C(F)(F)F)CC1` [Example 2j, 1,1,1,3,3,3-hexafluoropropan-2-yl 4-(bis(4-chloro-2-methylphenyl)methyl)piperazine-1-carboxylate], the results for the IC50 in assay [1] (competitive ABPP) and in assay [2] (competitive ABPP) were greater than 10000 nM and greater than 1000 nM, respectively.

On to `O=C(OC(C(F)(F)F)C(F)(F)F)N1CCN(Cc2ccc(C(F)(F)F)cc2N2CCCC2)CC1` [Example 9aq, 1,1,1,3,3,3-hexafluoropropan-2-yl 4-(2-(pyrrolidin-1-yl)-4-(trifluoromethyl)benzyl)piperazine-1-carboxylate], for which the IC50 in assay [1] (competitive ABPP (Table 7)) is greater than 10000 nM.

For `O=C(OC(C(F)(F)F)C(F)(F)F)N1CCN(Cc2cc(Cl)ccc2N2CCOCC2)CC1` [Example 9ag, 1,1,1,3,3,3-hexafluoropropan-2-yl 4-[[5-chloro-2-(morpholin-4-yl)phenyl]methyl]piperazine-1-carboxylate], the IC50 in assay [1] (competitive ABPP (Table 7)) was greater than 10000 nM; in assay [2] (competitive ABPP (Table 7)), greater than 1000 nM.

In the case of `O=C(OC(C(F)(F)F)C(F)(F)F)N1CCN(C(c2ccc(Cl)cc2)c2ccc(Cl)cc2)CC1` [Example 2b, 1,1,1,3,3,3-hexafluoropropan-2-yl 4-(bis(4-chlorophenyl)methyl)-piperazine-1-carboxylate], the IC50 in assay [1] (competitive ABPP) was greater than 10000 nM.

The compound `Cc1cc(N2CCOCC2)ccc1CN1CCN(C(=O)OC(C(F)(F)F)C(F)(F)F)CC1` [Example 9p, 1,1,1,3,3,3-hexafluoropropan-2-yl 4-(2-methyl-4-morpholinobenzyl)piperazine-1-carboxylate] gave an IC50 in assay [3] of less than 100 nM.

`O=C(OC(C(F)(F)F)C(F)(F)F)N1CCN(Cc2ccc(C(F)(F)F)cc2N2CCOCC2)CC1` [Example 9c, 1,1,1,3,3,3-hexafluoropropan-2-yl 4-[[2-(morpholin-4-yl)-4-(trifluoromethyl)phenyl]methyl]piperazine-1-carboxylate] came in with an IC50 in assay [1] (competitive ABPP (Table 7)) greater than 10000 nM.

In turn, `Cn1ncc(Br)c1CN1CCN(C(=O)OC(C(F)(F)F)C(F)(F)F)CC1` [Example 10f, 1,1,1,3,3,3-hexafluoropropan-2-yl 4-((4-bromo-1-methyl-1H-pyrazol-5-yl)methyl)piperazine-1-carboxylate] had an IC50 in assay [3] of 100 to 1000 nM.

In turn, `O=C(OC(C(F)(F)F)C(F)(F)F)N1CCN(Cc2cccc(Cl)c2N2CCOCC2)CC1` [Example 9ad, 1,1,1,3,3,3-hexafluoropropan-2-yl 4-[[3-chloro-2-(morpholin-4-yl)phenyl]methyl]piperazine-1-carboxylate] displayed an IC50 in assay [1] (competitive ABPP (Table 7)) greater than 10000 nM.

`O=C(OC(C(F)(F)F)C(F)(F)F)N1CCN(C(c2cocn2)c2cocn2)CC1` [Example 2i, 1,1,1,3,3,3-hexafluoropropan-2-yl 4-(bis(oxazol-4-yl)methyl)piperazine-1-carboxylate]: the concentration for half-maximal inhibition (IC50) in assay [1] (competitive ABPP) is greater than 6000 nM.

Take `Cn1cc(CN2CCN(C(=O)OC(C(F)(F)F)C(F)(F)F)CC2)c(-c2ccccc2Cl)n1` [l0g, 1,1,1,3,3,3-hexafluoropropan-2-yl 4-[[3-(2-chlorophenyl)-1-methyl-1H-pyrazol-4-yl]methyl]piperazine-1-carboxylate]: the IC50 in assay [1] (competitive ABPP (Table 7)) was greater than 10000 nM.

`O=C(OC(C(F)(F)F)C(F)(F)F)N1CCN(Cc2ccc(Br)cc2N2CCCCC2)CC1` [Example 9q, 1,1,1,3,3,3-hexafluoropropan-2-yl 4-(4-bromo-2-(piperidin-1-yl)benzyl)piperazine-1-carboxylate] came in with an IC50 in assay [3] of 100 to 1000 nM.

Regarding `Cn1nc(-c2ccccc2)cc1CN1CCN(C(=O)OC(C(F)(F)F)C(F)(F)F)CC1` [Example 10d, 1,1,1,3,3,3-hexafluoropropan-2-yl 4-((1-methyl-3-phenyl-1H-pyrazol-5-yl)methyl)piperazine-1-carboxylate], the half-maximal inhibitory concentration (IC50) in assay [1] (competitive ABPP (Table 7)) was greater than 10000 nM.

In turn, `O=C(OC(C(F)(F)F)C(F)(F)F)N1CCN(C(c2cccnc2)c2cccnc2)CC1` [Example 2l, 1,1,1,3,3,3-hexafluoropropan-2-yl 4-(di(pyridin-3-yl)methyl)piperazine-1-carboxylate] returned a half-maximal inhibitory concentration (IC50) in assay [1] (competitive ABPP) greater than 10000 nM.

The compound `O=C(OC(C(F)(F)F)C(F)(F)F)N1CCN(Cc2ccc(Br)cc2N2CCOCC2)CC1` [Example 9r, 1,1,1,3,3,3-hexafluoropropan-2-yl 4-(4-bromo-2-morpholinobenzyl)piperazine-1-carboxylate] had an IC50 in assay [3] of less than 100 nM.

In assay [3], `O=C(OC(C(F)(F)F)C(F)(F)F)N1CCN(Cc2ccc(-c3ccccc3)cc2N2CCOCC2)CC1` [Example 11f, 1,1,1,3,3,3-hexafluoropropan-2-yl 4-((3-morpholino-[1,1′-biphenyl]-4-yl)methyl)piperazine-1-carboxylate] registered a half-inhibitory concentration (IC50) greater than 1000 nM.

For `O=C(OC(C(F)(F)F)C(F)(F)F)N1CCN(Cc2ccccc2N2CCOCC2)CC1` [Example 9y, 1,1,1,3,3,3-hexafluoropropan-2-yl 4-(2-morpholinobenzyl)piperazine-1-carboxylate], the concentration for half-maximal inhibition (IC50) in assay [1] (competitive ABPP (Table 7)) was greater than 250 nM; in assay [3], less than 100 nM.
